Source: patent publication US4871740A, “Glycyrrhetic acid derivatives and use thereof” (Sanwa Kagaku Kenkyusho Co., Ltd., priority 1986, dated 1989)
Structures can show the parent of a compound that is named as a salt.

Experiments:
[1] = system: stress ulcer in rats; experiment: Action to stress ulcer in rats (restraint and water immersion); type: in vivo, Male Wister rats; details: Rattus norvegicus, po, 30 minutes before restraint, inhibition ratio, read-out: Ulcer Index (%)
Protocol: (Action to stress ulcer in rats)
Male Wister rats weighing about 180 g (age: 6 weeks) were used for this experiment.
Ten rats in each group were deprived of food for 24 hours before the experiment. They were immobilized in a restraint cage and immersed for 7 hours to the height of the xiphoid in a water bath kept at 23±1°C. After inflation with 10 ml of 1% formalin, the isolated stomach was opened along the greater curvature. The ulcer index (UI) was determined as the sum of the length (mm) of each erosion per rat. Each of the compounds to be tested was suspended in 5% gum arabic solution and given orally 30 minutes before restraint. Control animals received the same solution without any drug or the test compound.
(§1) Inhibition ratio is expressed as follows. [formula]

[2] = system: gastric necrosis in rats; experiment: Action to gastric necrosis in rats (absolute ethanol); type: in vivo, Male Sprague-Dewley rats; details: po, 1 hour before absolute ethanol, inhibition ratio
Protocol: (Action to gastric necrosis in rats)
Male Sprague-Dewley rats weighing about 250 g were used for this experiment.
Ten rats in each group were deprived of food for 24 hours before the experiment. Each of the compounds to be tested was suspended in 5% gum arabic solution and given orally to the test animal. After 1 hours from the administration of the compound. 1 ml of absolute ethanol was administered orally and the animals were killed 1 hour later from the ethanol administration. After inflation with 10 ml of 1% formalin, the isolated stomach was opened along the greater curvature. The ulcer index (UI) was determined as the sum of the length (mm) of each erosion per rat. […]. Control animals received the same solution without any drug or the test compound.
as §1

Row | Structure (SMILES) | inhibition in vivo at 25 mg/kg [1] | inhibition in vivo at 50 mg/kg [1] | inhibition in vivo at 100 mg/kg [1] | inhibition in vivo at 12.5 mg/kg [1] | Ulcer Index (%) ([2]; 25 mg/kg) | Ulcer Index (%) ([2]; 50 mg/kg) | Ulcer Index (%) ([2]; 100 mg/kg)
1 | COc1ccccc1N1CCN(C(=O)[C@@]2(C)CC[C@]3(C)CC[C@]4(C)C(=CC[C@@H]5[C@@]6(C)CC[C@H](O)C(C)(C)[C@@H]6CC[C@]54C)[C@@H]3C2)CC1 [Compound 2i, 1-(3β-hydroxy-18β-olean-12-en-30-oyl)-4-(o-methoxyphenyl)piperazine] | -18% | 4.9% | 46.4% | – | – | – | –
2 | CC(C)=CCCC(C)=CCSCCNC(=O)[C@@]1(C)CC[C@]2(C)CC[C@]3(C)C(=CC[C@@H]4[C@@]5(C)CC[C@H](OC(=O)/C=C\C(=O)O)C(C)(C)[C@@H]5CC[C@]43C)[C@@H]2C1 [Compound 4a, N-[2-(3,7-Dimethyl-2,6-octadien-1-ylthio)ethyl]-3β-(3-carboxy-cis-propenoyloxy)-18β-olean-12-en-30-amide sodium salt] | 21.1% | 58.2% | 73.1% | – | – | – | –
3 | CC(C)=CCCC(C)=CCCC(C)=CCSCCNC(=O)[C@@]1(C)CC[C@]2(C)CC[C@]3(C)C(=CC[C@@H]4[C@@]5(C)CC[C@H](OC(=O)/C=C\C(=O)O)C(C)(C)[C@@H]5CC[C@]43C)[C@@H]2C1 [Compound 4b] | 51% | 62.6% | 60.5% | – | – | – | –
4 | CC(C)=CCCC(C)=CCCC(C)=CCCC(C)=CCSCCNC(=O)[C@@]1(C)CC[C@]2(C)CC[C@]3(C)C(=CC[C@@H]4[C@@]5(C)CC[C@H](OC(=O)/C=C\C(=O)O)C(C)(C)[C@@H]5CC[C@]43C)[C@@H]2C1 [Compound 4c] | 30.5% | 46.8% | 61% | 33.3% | 43.3% | 66.1% | 48.9%
5 | CC(C)=CCCC(C)=CCCC(C)=CCCC(C)=CCCC(C)=CCCC(C)=CCCC(C)=CCCC(C)=CCCC(C)=CCSCCNC(=O)C1(C)CCC2(C)CCC3(C)C(=CCC4C5(C)CCC(OC(=O)C=CC(=O)O)C(C)(C)C5CCC43C)C2C1 (stereo not shown) [Compound 4d] | 55.4% | 42.1% | 56.2% | 33.9% | 31.7% | 20.6% | 39.2%
6 | CC(C)=CCCC(C)=CCCC(C)=CCCC(C)=CCCC(C)=CCCC(C)=CCCC(C)=CCCC(C)=CCCC(C)=CCCC(C)=CCSCCNC(=O)C1(C)CCC2(C)CCC3(C)C(=CCC4C5(C)CCC(OC(=O)C=CC(=O)O)C(C)(C)C5CCC43C)C2C1 (stereo not shown) [Compound 4e] | 44.7% | 53.5% | 60.5% | 50% | 21.3% | -9.5% | -34.7%
7 | CC(=CCSCCNC(=O)[C@@]1(C)CC[C@]2(C)CC[C@]3(C)C(=CC[C@@H]4[C@@]5(C)CC[C@H](OC(=O)/C=C\C(=O)O)C(C)(C)[C@@H]5CC[C@]43C)[C@@H]2C1)CCCC(C)CCCC(C)CCCC(C)C (stereo partly shown) [Compound 4f] | 16.5% | 4.3% | 34.5% | – | – | – | –
8 | CC(C)=CCCC(C)=CCCC(C)=CCN1CCN(C(=O)[C@@]2(C)CC[C@]3(C)CC[C@]4(C)C(=CC[C@@H]5[C@@]6(C)CC[C@H](OC(=O)/C=C\C(=O)O)C(C)(C)[C@@H]6CC[C@]54C)[C@@H]3C2)CC1 [Compound 4g] | 22.5% | 21.6% | – | 11.7% | – | – | –
9 | CC(C)=CCCC(C)=CCCC(C)=CCOC(=O)[C@@]1(C)CC[C@]2(C)CC[C@]3(C)C(=CC[C@@H]4[C@@]5(C)CC[C@H](OC(=O)/C=C\C(=O)O)C(C)(C)[C@@H]5CC[C@]43C)[C@@H]2C1 [Compound 4h] | 6.1% | 35.7% | – | 8% | – | – | –
10 | COc1ccccc1N1CCN(C(=O)[C@@]2(C)CC[C@]3(C)CC[C@]4(C)C(=CC[C@@H]5[C@@]6(C)CC[C@H](OC(=O)/C=C\C(=O)O)C(C)(C)[C@@H]6CC[C@]54C)[C@@H]3C2)CC1 [Compound 4i] | 24.4% | 61.4% | 76.5% | – | – | – | –
11 | CC(C)=CCCC(C)=CCCC(C)=CCCC(C)=CCCC(C)=CCCC(C)=CCCC(C)=CCCC(C)=CCCC(C)=CCCC(C)=CCSCCNC(=O)C1(C)CCC2(C)CCC3(C)C(=CC(=O)C4C5(C)CCC(OC(=O)C=CC(=O)O)C(C)(C)C5CCC43C)C2C1 (stereo not shown) [Compound 4k] | 45.5% | 43.6% | 56.4% | 48.5% | 58.7% | 10.9% | 14.3%
12 | COc1ccccc1N1CCN(C(=O)[C@@]2(C)CC[C@]3(C)CC[C@]4(C)C(=CC(=O)[C@@H]5[C@@]6(C)CC[C@H](OC(=O)/C=C\C(=O)O)C(C)(C)[C@@H]6CC[C@]54C)[C@@H]3C2)CC1 [Compound 4l] | 25.9% | 31.7% | – | 6.3% | – | – | –
13 | COc1ccccc1N1CCN(C(=O)[C@@]2(C)CC[C@]3(C)CC[C@]4(C)C(=CC[C@@H]5[C@@]6(C)CC[C@H](OC(=O)CCC(=O)O)C(C)(C)[C@@H]6CC[C@]54C)[C@@H]3C2)CC1 [Compound 4m, sodium salt] | 9.5% | 26.5% | 23.2% | – | – | – | –
14 | CC1(C)[C@@H](OCC(=O)O)CC[C@]2(C)[C@H]3CC=C4[C@@H]5C[C@@](C)(C(=O)O)CC[C@]5(C)CC[C@@]4(C)[C@]3(C)CC[C@@H]12 [Compound 6, 3β-(carboxymethoxy)-18β-olean-12-en-30-oic acid disodium salt] | 7.2% | 42.5% | 59.8% | – | – | – | –
15 | CC1(C)[C@@H](OCCC(=O)O)CC[C@]2(C)[C@H]3CC=C4[C@@H]5C[C@@](C)(C(=O)O)CC[C@]5(C)CC[C@@]4(C)[C@]3(C)CC[C@@H]12 [Compound 9, 3β-(2-Carboxyethoxy)-18β-olean-12-en-30-oic acid disodium salt] | -0.7% | 11.8% | 26.1% | – | – | – | –
